Laboratory results from patent US20120302566A1, “INDANYLOXYDIHYDROBENZOFURANYLACETIC ACIDS” (BOEHRINGER INGELHEIM INTERNATIONAL GMBH, priority 2010, published 2012).

What follows are compounds tested against human GPR40 receptor (Homo sapiens, UniProt O14842) (assay: IP1 accumulation measurements using the IPOne assay system). Conditions: IP1 accumulation (IPOne HTRF), 1 hour stimulation; 1321N1 cells stably expressing human GPR40; read-out: EC50 values on GPR40 determined as described in (B).
Type: cell-based
Experimental: (B) IP1 accumulation measurements using the IPOne assay system—1321N1 cells stably expressing human GPR40 receptor (Euroscreen, Belgium) were seeded 24 h before the assay in black clear-bottom collagen-coated 384-well plates in culture medium containing 10% FCS, 1% Na-Pyruvate and 400 μg/mL G418. IP1 is assayed according to the Manufacturer's description (Cisbio Bioassays, France). In brief, the assay is started by substitution of the culture medium by stimulation buffer (Hepes 10 mM, CaCl2 1 mM, MgCl2 0.5 mM, KCl 4.2 mM, NaCl 146 mM and glucose 5.5 mM, pH 7.4) without LiCl. Cells are stimulated for 1 hour at 37°, 10% CO2 by addition of the compounds that were diluted in stimulation buffer containing LiCl yielding a final LiCl concentration of 50 mM. Assays are stopped by adding HTRF-conjugates (IP1-d2 and Anti-IP1 cryptate Tb) and lysis buffer, provided by the manufacturer. After an incubation time of 1 hour at room temperature plates are measured using an EnVision™, Perkin Elmer.

Chain of human GPR40 receptor (O14842 whole entry): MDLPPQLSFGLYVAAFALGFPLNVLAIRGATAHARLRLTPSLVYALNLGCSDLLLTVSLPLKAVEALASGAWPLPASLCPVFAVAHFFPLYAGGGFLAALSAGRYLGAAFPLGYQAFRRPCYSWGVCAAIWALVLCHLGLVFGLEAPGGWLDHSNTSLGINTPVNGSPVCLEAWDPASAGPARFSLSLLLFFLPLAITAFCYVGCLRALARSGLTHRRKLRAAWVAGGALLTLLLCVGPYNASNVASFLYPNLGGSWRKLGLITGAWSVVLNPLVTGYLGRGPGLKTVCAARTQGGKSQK

Compound | EC50 [nM]
CC1OC(c2cccc3c2CC[C@H]3Oc2ccc3c(c2)OC[C@H]3CC(=O)O)C1(C)C (single isomer, unassigned) [Example 41] | 323
Cc1cccnc1-c1cccc2c1CC[C@H]2Oc1ccc2c(c1)OC[C@H]2CC(=O)O [Example 58, {(S)-6-[(R)-4-(3-Methyl-pyridin-2-yl)-indan-1-yloxy]-2,3-dihydro-benzofuran-3-yl}-acetic acid] | 534
CC1(C)CCC=C1c1cccc2c1CC[C@H]2Oc1ccc2c(c1)OC[C@H]2CC(=O)O [Example 40, {(S)-6-[(R)-4-(5,5-Dimethyl-cyclopent-1-enyl)-indan-1-yloxy]-2,3-dihydro-benzofuran-3-yl}-acetic acid] | 13
Cc1cccc(C)c1-c1cccc2c1CC[C@H]2Oc1ccc2c(c1)OC[C@H]2CC(=O)O [Example 33, {(S)-6-[(R)-4-(2,6-Dimethyl-phenyl)-indan-1-yloxy]-2,3-dihydro-benzofuran-3-yl}-acetic acid] | 4
Cc1ccc(C(F)(F)F)c2c1[C@H](Oc1ccc3c(c1)OC[C@H]3CC(=O)O)CC2 [Example 30, {(S)-6-[(R)-7-Methyl-4-trifluoromethyl-indan-1-yloxy]-2,3-dihydro-benzofuran-3-yl}-acetic acid] | 302
Cc1c(O[C@@H]2CCc3c2cccc3C(F)(F)F)ccc2c1OCC2CC(=O)O (mixture of isomers) [Example 105, {7-Methyl-6-[(R)-4-trifluoromethyl-indan-1-yloxy]-2,3-dihydro-benzofuran-3-yl}-acetic acid] | 4250
O=C(O)C[C@@H]1COc2cc(O[C@H]3CCc4ccc(C(F)(F)F)cc43)ccc21 [Example 50, {(S)-6-[(S)-6-Trifluoromethyl-indan-1-yloxy]-2,3-dihydro-benzofuran-3-yl]-acetic acid] | 2970
CC1(C)CCC[C@@H]1c1cccc2c1CC[C@H]2Oc1ccc2c(c1)OC[C@H]2CC(=O)O (single isomer, unassigned) [Example 75] | 39
O=C(O)C[C@@H]1COc2cc(O[C@@H]3CCc4c(C(F)(F)F)ccc(F)c43)ccc21 [Example 24, {(S)-6-[(R)-7-Fluoro-4-trifluoromethyl-indan-1-yloxy]-2,3-dihydro-benzofuran-3-yl}-acetic acid] | 35
CC1(C)CCCC=C1c1cccc2c1CC[C@H]2Oc1ccc2c(c1)OC[C@H]2CC(=O)O [Example 70, {(S)-6-[(R)-4-(6,6-Dimethyl-cyclohex-1-enyl)-indan-1-yloxy]-2,3-dihydro-benzofuran-3-yl}-acetic acid] | 8
CC1(c2cccc3c2CC[C@H]3Oc2ccc3c(c2)OC[C@H]3CC(=O)O)CC1 [Example 87, {(S)-6-[(R)-4-(1-Methyl-cyclopropyl)-indan-1-yloxy]-2,3-dihydro-benzofuran-3-yl}-acetic acid] | 64
Cc1cc2c(c(C(F)(F)F)c1)CC[C@H]2Oc1ccc2c(c1)OC[C@H]2CC(=O)O [Example 26, {(S)-6-[(R)-6-Methyl-4-trifluoromethyl-indan-1-yloxy]-2,3-dihydro-benzofuran-3-yl}-acetic acid] | 19
Cc1ccc(O)cc1-c1cccc2c1CC[C@H]2Oc1ccc2c(c1)OC[C@H]2CC(=O)O [Example 72, {(S)-6-[(R)-4-(5-Hydroxy-2-methyl-phenyl)-indan-1-yloxy]-2,3-dihydro-benzofuran-3-yl}-acetic acid] | 98
CC(O)(c1cccc2c1CC[C@H]2Oc1ccc2c(c1)OC[C@H]2CC(=O)O)C1CCOCC1 (stereo partly drawn) [Example 81, ((S)-6-{(R)-4-[1-Hydroxy-1-(tetrahydro-pyran-4-yl)-ethyl]-indan-1-yloxy}-2,3-dihydro-benzofuran-3-yl)-acetic acid] | 1540
COc1ccc(C)c(-c2cccc3c2CC[C@H]3Oc2ccc3c(c2)OC[C@H]3CC(=O)O)c1C [Example 100, {(S)-6-[(R)-4-(3-Methoxy-2,6-dimethyl-phenyl)-indan-1-yloxy]-2,3-dihydro-benzofuran-3-yl}-acetic acid] | 26
